Test [1] concerns the target human PD-L1 (Homo sapiens (Human), UniProt Q9NZQ7). In words: T cell activation luciferase reporter cell culture system (T Cell Activation Assay). Type of test: cell-based. As to conditions: luciferase reporter assay; PD-L1 aAPC/CHO-K1 cells with PD-1 effector Jurkat T cells. A general note: A reporter such as luciferase makes a cellular process visible.
In test [2] the target is PD-L1 His protein / PD-1 Fc protein (Homo sapiens (Human), UniProt Q9NZQ7). As to the kind of experiment: HTRF Assay (PD-1/PD-L1 interaction). Type of test: binding. As to conditions: PD-L1 His 6 nM, PD-1 Fc 6 nM. For orientation: In TR-FRET formats the signal depends on donor and acceptor labels being close together.

SMILES strings stand for the structures.

Broadly, the EC50 is the concentration at which the effect is half-maximal. A lower EC50 goes with higher potency in that assay. One may read the IC50 as the concentration at which inhibition is half-maximal. A low value points to greater potency.

Chain of PD-L1 His protein / PD-1 Fc protein (Q9NZQ7 19-238): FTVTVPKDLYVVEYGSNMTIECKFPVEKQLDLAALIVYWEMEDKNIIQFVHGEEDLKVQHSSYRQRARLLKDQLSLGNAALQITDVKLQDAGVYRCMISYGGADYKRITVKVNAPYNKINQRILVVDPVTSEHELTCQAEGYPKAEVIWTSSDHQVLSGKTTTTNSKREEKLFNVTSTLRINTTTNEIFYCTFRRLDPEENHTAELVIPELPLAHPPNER
Chain of human PD-L1 (Q9NZQ7 19-290): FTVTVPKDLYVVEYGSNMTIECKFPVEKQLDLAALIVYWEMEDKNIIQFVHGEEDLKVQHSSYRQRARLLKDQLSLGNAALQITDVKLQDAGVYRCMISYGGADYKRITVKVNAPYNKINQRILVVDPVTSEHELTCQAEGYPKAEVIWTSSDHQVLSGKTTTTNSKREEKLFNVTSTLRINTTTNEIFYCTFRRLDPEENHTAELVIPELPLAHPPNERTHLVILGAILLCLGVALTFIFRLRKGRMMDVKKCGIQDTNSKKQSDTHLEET

Take `COc1nc(-c2cccc(-c3ccnc(-c4cnc5c(CNC6CCN(C(C)=O)CC6)cn(C)c5c4)c3Cl)c2Cl)ccc1CNC[C@@H]1CCC(=O)N1` [Compound 21, (S)-5-((((6-(3-(2-(3-(((1-acetylpiperidin-4-yl)amino)methyl)-1-methyl-1H-pyrrolo[3,2-b]pyridin-6-yl)-3-chloropyridin-4-yl)-2-chlorophenyl)-2-methoxypyridin-3-yl)methyl)amino)methyl)pyrrolidin-2-one]: in test [1], the midpoint of the response, the EC50, lay at 75.8 nM. Half-maximal inhibition in test [2] (IC50) was put at 0.1 nM.

Molecule `COc1cc(-c2nccc(-c3cccc(-c4ccc(CNC[C@@H]5CCC(=O)N5)c(OC)n4)c3Cl)c2Cl)cc(F)c1CNC1CC2(C1)CN(C(C)=O)C2` [Compound 210, (S)-5-((((6-(3-(2-(4-(((2-acetyl-2-azaspiro[3.3]heptan-6-yl)amino)methyl)-3-fluoro-5-methoxyphenyl)-3-chloropyridin-4-yl)-2-chlorophenyl)-2-methoxypyridin-3-yl)methyl)amino)methyl)pyrrolidin-2-one] showed a half-maximal effective concentration (EC50) in test [1] of 26.6 nM. Also, in test [2], 2.12 nM corresponded to half-maximal inhibition (IC50).

In turn, `COc1nc(-c2cccc(-c3ccnc(-c4cc(OC)c5nc(CN6CC7(CNC(=O)C7)C6)cn5c4)c3Cl)c2Cl)ccc1CNC[C@@H]1CCC(=O)N1` [Example 314, (S)-2-((6-(3-Chloro-4-(2-chloro-3-(6-methoxy-5-((((5-oxopyrrolidin-2-yl)methyl)amino)methyl)pyridin-2-yl)phenyl)pyridin-2-yl)-8-methoxyimidazo[1,2-a]pyridin-2-yl)methyl)-2,6-diazaspiro[3.4]octan-7-one] came in with an EC50 in test [1] of 69.2 nM. Further, it took 1.63 nM to reach half-maximal inhibition in test [2] (IC50).

Molecule `COc1cc(-c2nccc(-c3cccc(-c4ccc(CNC[C@H](C)O)c(OC)n4)c3Cl)c2Cl)cc2c1CN(C[C@H](C)O)CC2` [Compound 214, (S)-1-(((6-(2-chloro-3-(3-chloro-2-(2-((S)-2-hydroxypropyl)-8-methoxy-1,2,3,4-tetrahydroisoquinolin-6-yl)pyridin-4-yl)phenyl)-2-methoxypyridin-3-yl)methyl)amino)propan-2-ol] yielded an EC50 in test [1] of 27 nM. Also, in test [2], the IC50 was determined as 4.31 nM.

Take `COc1cc(-c2nccc(-c3cccc(-c4ccc(CNC5CCN(C(C)=O)CC5)c(OC)n4)c3Cl)c2Cl)ccc1CN1CCOCC1` [Example 458, 1-(4-(((6-(2-Chloro-3-(3-chloro-2-(3-methoxy-4-(morpholinomethyl)phenyl)pyridin-4-yl)phenyl)-2-methoxypyridin-3-yl)methyl)amino)piperidin-1-yl)ethan-1-one]: the response in test [1] was half-maximal at 82.6 nM (EC50). The molecule also had an IC50 in test [2] of 24.6 nM.

Regarding `COc1nc(-c2cccc(-c3ccnc(-c4ccc5c(c4)CN(CCNC[C@@H]4CCC(=O)N4)C5=O)c3Cl)c2Cl)cc(F)c1CNC[C@@H]1CCC(=O)N1` [Compound 178, 5-(3-chloro-4-(2-chloro-3-(4-fluoro-6-methoxy-5-(((((S)-5-oxopyrrolidin-2-yl)methyl)amino)methyl)pyridine-2-yl)phenyl)pyridine-2-yl)-2-(2-((((S)-5-oxopyrrolidin-2-yl)methyl)amino)ethyl)isoindolin-1-one], in test [1], the EC50 is 144 nM. In test [2], this molecule returned an IC50 of 1.25 nM.

The molecule `CNCc1ccc(-c2cccc(-c3ccnc(-c4ccc(CNCC56CC(C(=O)O)(C5)C6)c(OC)c4)c3Cl)c2Cl)nc1OC` [Compound 228, 3-(((4-(3-chloro-4-(2-chloro-3-(6-methoxy-5-((methylamino)methyl)pyridin-2-yl)phenyl)pyridin-2-yl)-2-methoxybenzyl)amino)methyl)bicyclo[1.1.1]pentane-1-carboxylic acid] had an EC50 in test [1] of 75.5 nM. In test [2], this molecule gave an IC50 of 0.23 nM.

`COc1cc(-c2nccc(-c3nccc(-c4ccc(CN5CC6(CNC(=O)C6)C5)c(OC)n4)c3Cl)c2Cl)ccc1CN1CC2(CNC(=O)C2)C1` [Example 669, 2-(4-(3′,3″-Dichloro-6-methoxy-5-((7-oxo-2,6-diazaspiro[3.4]octan-2-yl)methyl)-[2,4′:2′,4″-terpyridin]-2″-yl)-2-methoxybenzyl)-2,6-diazaspiro[3.4]octan-7-one] showed an EC50 in test [1] of 296 nM. The IC50 in test [2] came out at 0.34 nM.

The molecule `CNCc1ccc(-c2cccc(-c3ccnc(-c4cc(CNCC56CC(C(=O)O)(C5)C6)cc(OC)c4)c3Cl)c2Cl)nc1OC` [Compound 175, 3-(((3-(3-chloro-4-(2-chloro-3-(6-methoxy-5-((methylamino)methyl)pyridine-2-yl)phenyl)pyridine-2-yl)-5-methoxybenzyl)amino)methyl)bicyclo[1.1.1]pentane-1-carboxylic acid] showed an EC50 in test [1] of 1160 nM. Also, the half-inhibitory concentration (IC50) in test [2] came to 8.73 nM.

On to `COc1cc(-c2nccc(-c3cccc(-c4ccc(CNC[C@H](C)O)c(OC)n4)c3Cl)c2Cl)cc2c1CN(CC(N)=O)CC2` [Example 275, (S)-2-(6-(3-Chloro-4-(2-chloro-3-(5-(((2-hydroxypropyl)amino)methyl)-6-methoxypyridin-2-yl)phenyl)pyridin-2-yl)-8-methoxy-3,4-dihydroisoquinolin-2(1H)-yl)acetamide], for which the half-maximal effective concentration (EC50) in test [1] was at least 10000 nM. In test [2], the IC50 was 5.36 nM.

On to `COc1nc(-c2cccc(-c3ccnc(-c4cnc5c(CNC[C@@H]6CCO6)cn(C)c5c4)c3Cl)c2Cl)ccc1CNC[C@@H]1CCC(=O)N1` [Compound 22, (S)-5-((((6-(2-chloro-3-(3-chloro-2-(1-methyl-3-(((((S)-oxetan-2-yl)methyl)amino)methyl)-1H-pyrrolo[3,2-b]pyridin-6-yl)pyridin-4-yl)phenyl)-2-methoxypyridin-3-yl)methyl)amino)methyl)pyrrolidin-2-one], for which the EC50 in test [1] stood at 135 nM. The same molecule yielded an IC50 in test [2] of 0.3 nM.

`COc1cc(-c2nccc(-c3cccc(-c4ccc(CNC5CC6(CCNC6=O)C5)c(OC)n4)c3Cl)c2Cl)ccc1CNC1CC2(CCNC2=O)C1` (stereo not shown) [Example 302, 2-((4-(3-Chloro-4-(2-chloro-3-(6-methoxy-5-(((5-oxo-6-azaspiro[3.4]octan-2-yl)amino)methyl)pyridin-2-yl)phenyl)pyridin-2-yl)-2-methoxybenzyl)amino)-6-azaspiro[3.4]octan-5-one] registered a half-maximal effective concentration (EC50) in test [1] of 23.5 nM. In test [2], this molecule showed a half-inhibitory concentration (IC50) of 1.11 nM.

`COc1cc(-c2nccc(-c3cccc(-c4ccc(CNC[C@@H]5CCC(=O)N5)c(OC)n4)c3Cl)c2Cl)cc(C)c1CNC[C@@H]1CCC(=O)N1` [Compound 115, (S)-5-((((6-(2-chloro-3-(3-chloro-2-(3-methoxy-5-methyl-4-(((((S)-5-oxopyrrolidin-2-yl)methyl)amino)methyl)phenyl)pyridin-4-yl)phenyl)-2-methoxypyridin-3-yl)methyl)amino)methyl)pyrrolidin-2-one] yielded an EC50 in test [1] of 36.3 nM. Also, the half-maximal inhibitory concentration (IC50) in test [2] worked out at 1.1 nM.

In test [1], `COCCNCc1cn(C)c2nc(-c3cccc(-c4ccnc(-c5ccc(CNC[C@@H]6CCC(=O)N6)c(OC)c5)c4Cl)c3Cl)ccc12` [Compound 100, (S)-5-(((4-(3-chloro-4-(2-chloro-3-(3-(((2-methoxyethyl)amino)methyl)-1-methyl-1H-pyrrolo[2,3-b]pyridin-6-yl)phenyl)pyridin-2-yl)-2-methoxybenzyl)amino)methyl)pyrrolidin-2-one] returned an EC50 of 59 nM. Further, the IC50 in test [2] was 0.9 nM.
